{"source": "patent US20140148336A1", "about": "“METHODS OF CONTROLLING FUNGAL PATHOGENS USING POLYENE FUNGICIDES” (priority 2012, published 2014)", "key": {"SDS": {"tested_on": "SDS", "assay": "Seed treatment for control of SDS in planta, infested soil (Example 5)", "assay_type": "in vivo, Fusarium virguliforme", "conditions": "for Root Rot Average: 25 g inoculum per liter, rating 1-5 (5 = >90% infection), IC 3.3; for Root Vigor Average Infested Soil: rating 0-4 (4 = healthy taproot), IC 2.5", "text": "(§1) The plants were allowed to grow for 18-21 days. The plants were then gently removed and assessed for root rot symptoms, with a rating of 1=0% infection on taproot and lateral roots, a 2=<25% infection, a 3=25-50% infection, a 4=51-90% infection, and a 5=>90% infection. Root vigor was rated such that a rating of 4=healthy taproot and many lateral roots, a 3=fewer lateral roots and some stunting, a 2=fewer or stringy lateral roots and more stunting, 1=thin tap root and only a few lateral roots, and a 0=thin and stunted taproot with 0-3 lateral roots.\nUsing a protocol similar to Example 2, natamycin treated seeds were tested at 50 μg, 25 μg, 10 μg, 5 μg, and 1 μg natamycin per seed. Briefly, seeds were coated with a natamycin slurry and then allowed to air dry. Ten samples of each were planted into infested soil, while five samples of each were planted in uninfested soil to compare germination and potential phytotoxicity.\nInoculum rates in this experiment were 25 g inoculum per liter sand/soil. This is equivalent to 8.5×10^4 spores per cone.\nPlants treated with 50 μg/seed of natamycin had the most root rot, while plants treated with 1 μg/seed of natamycin had the least root rot. […] In the tables below, “IC Natamycin 25 ppm” refers to an infested control that was treated with natamcyin as a drench application at 25 ppm two days after planting untreated seed into infested soil."}, "SDS spores": {"tested_on": "SDS spores", "assay": "Comparison of inoculum rates on treated seeds for control of SDS in planta (Example 6)", "assay_type": "in vivo, Fusarium virguliforme", "conditions": "for Root Vigor Average: rating 0-4 (4 = healthy taproot); for Root Rot Average: rating 1-5 (5 = >90% infection)", "text": "as §1\nUsing a protocol similar to that described in Example 5, natamycin at concentrations of 50 μg, 25 μg, 10 μg, 5 μg, and 1 μg was assessed for the treatment of SDS.\n[…] Inoculum rates of 25 g/L inoculum and 8 g/L inoculum were compared, corresponding to approximately 10^5 SDS spores per container and 10^4-10^5 SDS spores per container, respectively. Assessment occurred after 18 and 22 days."}, "F. virguliforme": {"tested_on": "F. virguliforme", "assay": "Agar diffusion assay, zones of inhibition on F. virguliforme lawn plates (Example 1)", "assay_type": "cell-based, Fusarium virguliforme", "protocol": "A PDA plate containing two week old F. virguliforme was flooded with sterile distilled water and scraped with an L-rod to release spores. The spore solution was poured through about four layers of cheese cloth into a 50 mL conical tube. Spores were quantified using a hemacytometer, then diluted to 1×10^5 spores/mL. (1×10^4 spores were spread on plates.) To make F. virguliforme lawn plates, 100 μL of the spore suspension was spread onto commercial PDA plates. Wells were made for the F. virguliforme lawn plates using straw-plungers.\nNatamycin stock was diluted in sterile distilled water to concentrations of 500 ppm, 250 ppm, 100 ppm, 50 ppm, 25 ppm, 12.5 ppm, 6.25 ppm, 3.13 ppm, 1.56 ppm, 0.78 ppm, and 0.4 ppm. 100 μL of each dilution was placed in a well on the lawn plates. Control plates consisted of a 1000 ppm plate, a water control, and a 70% ethanol (EtOH) control.\n[…] […] Dilutions lower than 12.5 ppm had no effect."}, "[1]": {"tested_on": "SDS Fusarium virguliforme", "assay": "Drench treatment on soy seedlings for control of SDS in planta, low concentrations (Example 4)", "assay_type": "in vivo", "conditions": "for Root Vigor Average Expt. 1 / Root Vigor Average Expt. 2: rating 0 (thin and stunted taproot) to 4 (healthy taproot); for Root Vigor Average Expt. 1: IC 1.6, UIC 3.6; for Root Vigor Average Expt. 2: IC 2.2, UIC 3.9; for Root Rot Average Expt. 2 / Root Rot Average Expt. 1: rating 1 (0% infection) to 5 (>90% infection); for Root Rot Average Expt. 2: IC 3.8, UIC 1; for Root Rot Average Expt. 1: IC 4, UIC 1", "text": "The plants were allowed to grow for 18-21 days. The plants were then gently removed and assessed for root rot symptoms, with a rating of 1=0% infection on taproot and lateral roots, a 2=<25% infection, a 3=25-50% infection, a 4=51-90% infection, and a 5=>90% infection. Root vigor was rated such that a rating of 4=healthy taproot and many lateral roots, a 3=fewer lateral roots and some stunting, a 2=fewer or stringy lateral roots and more stunting, 1=thin tap root and only a few lateral roots, and a 0=thin and stunted taproot with 0-3 lateral roots. […] In these experiments, the inoculum rate was measured by spores/cone at approximately 1×10^7 SDS Fusarium virguliforme spores per cone. Soy plants were germinated first and then transplanted into infested soil. The soybean seeds were germinated in clean sand/soil for 12 days and then seedlings were transplanted into infested soil for 18 days. Natamycin drench was applied 24 hours after transplanting. Natamycin treatment was assessed at 2.5 weeks."}, "[2]": {"conditions": "drench 25 ppm two days after planting untreated seed into infested soil"}}, "data": [{"smiles": "C[C@@H]1C/C=C/C=C/C=C/C=C/[C@H](O[C@@H]2O[C@H](C)[C@@H](O)[C@H](N)[C@@H]2O)C[C@@H]2O[C@](O)(C[C@@H](O)C[C@H]3O[C@@H]3/C=C/C(=O)O1)C[C@H](O)[C@H]2C(=O)O", "note": "[Natamycin, natamycin]", "values": [{"measurement": "Root Rot Average", "setting": "SDS; [2]", "value": 1.8}, {"measurement": "Root Vigor Average Infested Soil", "setting": "SDS; [2]", "value": 2.3}, {"measurement": "Root Rot Average", "setting": "SDS; seed treatment 1 μg/seed, infested soil", "value": 3}, {"measurement": "Root Vigor Average Infested Soil", "setting": "SDS; seed treatment 1 μg/seed", "value": 1.9}, {"measurement": "Root Rot Average", "setting": "SDS; seed treatment 5 μg/seed, infested soil", "value": 3.6}, {"measurement": "Root Vigor Average Infested Soil", "setting": "SDS; seed treatment 5 μg/seed", "value": 2.4}, {"measurement": "Root Rot Average", "setting": "SDS; seed treatment 10 μg/seed, infested soil", "value": 4}, {"measurement": "Root Vigor Average Infested Soil", "setting": "SDS; seed treatment 10 μg/seed", "value": 1.8}, {"measurement": "Root Rot Average", "setting": "SDS; seed treatment 25 μg/seed, infested soil", "value": 4.7}, {"measurement": "Root Vigor Average Infested Soil", "setting": "SDS; seed treatment 25 μg/seed", "value": 1.1}, {"measurement": "Root Rot Average", "setting": "SDS; seed treatment 50 μg/seed, infested soil", "value": 4.6}, {"measurement": "Root Vigor Average Infested Soil", "setting": "SDS; seed treatment 50 μg/seed", "value": 1.6}, {"measurement": "decrease of root rot symptoms", "setting": "SDS spores; both seed treatment experiments, both SDS inoculum rates", "value": "no consistent decrease"}, {"measurement": "Root Vigor Average", "setting": "SDS spores; drench 25 ppm, Inoc Rate 8, IC 2.3", "value": 1.9}, {"measurement": "Root Rot Average", "setting": "SDS spores; drench 25 ppm, Inoc Rate 8, IC 2.9", "value": 2.6}, {"measurement": "Root Vigor Average", "setting": "SDS spores; drench 25 ppm, Inoc Rate 25, IC 1.6", "value": 2.3}, {"measurement": "Root Rot Average", "setting": "SDS spores; drench 25 ppm, Inoc Rate 25, IC 3.9", "value": 4.1}, {"measurement": "Root Vigor Average", "setting": "SDS spores; seed treatment 1 μg/seed, Inoc Rate 8, IC 2.3", "value": 1.9}, {"measurement": "Root Rot Average", "setting": "SDS spores; seed treatment 1 μg/seed, Inoc Rate 8, IC 2.9", "value": 2.9}, {"measurement": "Root Vigor Average", "setting": "SDS spores; seed treatment 1 μg/seed, Inoc Rate 25, IC 1.6", "value": 2.1}, {"measurement": "Root Rot Average", "setting": "SDS spores; seed treatment 1 μg/seed, Inoc Rate 25, IC 3.9", "value": 4.1}, {"measurement": "Root Vigor Average", "setting": "SDS spores; seed treatment 5 μg/seed, Inoc Rate 8, IC 2.3", "value": 1.4}, {"measurement": "Root Rot Average", "setting": "SDS spores; seed treatment 5 μg/seed, Inoc Rate 8, IC 2.9", "value": 2.4}, {"measurement": "Root Vigor Average", "setting": "SDS spores; seed treatment 5 μg/seed, Inoc Rate 25, IC 1.6", "value": 2.6}, {"measurement": "Root Rot Average", "setting": "SDS spores; seed treatment 5 μg/seed, Inoc Rate 25, IC 3.9", "value": 4.1}, {"measurement": "Root Vigor Average", "setting": "SDS spores; seed treatment 10 μg/seed, Inoc Rate 8, IC 2.3", "value": 2.2}, {"measurement": "Root Rot Average", "setting": "SDS spores; seed treatment 10 μg/seed, Inoc Rate 8, IC 2.9", "value": 2.4}, {"measurement": "Root Vigor Average", "setting": "SDS spores; seed treatment 10 μg/seed, Inoc Rate 25, IC 1.6", "value": 1.9}, {"measurement": "Root Rot Average", "setting": "SDS spores; seed treatment 10 μg/seed, Inoc Rate 25, IC 3.9", "value": 4.1}, {"measurement": "Root Vigor Average", "setting": "SDS spores; seed treatment 25 μg/seed, Inoc Rate 8, IC 2.3", "value": 1.8}, {"measurement": "Root Rot Average", "setting": "SDS spores; seed treatment 25 μg/seed, Inoc Rate 8, IC 2.9", "value": 2.3}, {"measurement": "Root Vigor Average", "setting": "SDS spores; seed treatment 25 μg/seed, Inoc Rate 25, IC 1.6", "value": 2.2}, {"measurement": "Root Rot Average", "setting": "SDS spores; seed treatment 25 μg/seed, Inoc Rate 25, IC 3.9", "value": 3.6}, {"measurement": "Root Vigor Average", "setting": "SDS spores; seed treatment 50 μg/seed, Inoc Rate 8, IC 2.3", "value": 1.9}, {"measurement": "Root Rot Average", "setting": "SDS spores; seed treatment 50 μg/seed, Inoc Rate 8, IC 2.9", "value": 2.8}, {"measurement": "Root Vigor Average", "setting": "SDS spores; seed treatment 50 μg/seed, Inoc Rate 25, IC 1.6", "value": 2.1}, {"measurement": "Root Rot Average", "setting": "SDS spores; seed treatment 50 μg/seed, Inoc Rate 25, IC 3.9", "value": 3.8}, {"measurement": "control of F. virguliforme (zones of inhibition), drop off", "setting": "F. virguliforme; 12.5 ppm, 100 μL per well, after three days", "value": "noticeably"}, {"measurement": "control of F. virguliforme (zones of inhibition)", "setting": "F. virguliforme; 12.5 ppm, after seven days", "value": "very limited activity"}, {"measurement": "Fusarium growth around plates", "setting": "F. virguliforme; 25 ppm and 12.5 ppm plates, one day later (after the three-day reading)", "value": "more Fusarium grew"}, {"measurement": "control of F. virguliforme (zones of inhibition)", "setting": "F. virguliforme; 50 ppm, 100 μL per well, after three days", "value": "started to drop off slightly"}, {"measurement": "control of F. virguliforme (zones of inhibition)", "setting": "F. virguliforme; 50 ppm, after seven days", "value": "started falling off"}, {"measurement": "control of F. virguliforme (zones of inhibition)", "setting": "F. virguliforme; 100 ppm, 100 μL per well, after three days", "value": "Substantial control"}, {"measurement": "control of F. virguliforme (zones of inhibition)", "setting": "F. virguliforme; 250 ppm, 100 μL per well, after three days", "value": "Substantial control"}, {"measurement": "control of F. virguliforme (zones of inhibition)", "setting": "F. virguliforme; 500 ppm, 100 μL per well, after three days", "value": "Substantial control"}, {"measurement": "control of F. virguliforme (zones of inhibition)", "setting": "F. virguliforme; 1000 ppm plate, after three days", "value": "almost completely controlled"}, {"measurement": "effect on F. virguliforme (zones of inhibition)", "setting": "F. virguliforme; dilutions lower than 12.5 ppm", "value": "no effect"}, {"measurement": "Root Vigor Average Expt. 1", "setting": "[1]; drench 1 ppm", "value": 1.7}, {"measurement": "Root Vigor Average Expt. 2", "setting": "[1]; drench 1 ppm", "value": 2.5}, {"measurement": "Root Rot Average Expt. 2", "setting": "[1]; drench 1 ppm", "value": 3.2}, {"measurement": "Root Rot Average Expt. 1", "setting": "[1]; drench 1 ppm", "value": 4.5}, {"measurement": "Root Vigor Average Expt. 1", "setting": "[1]; drench 5 ppm", "value": 2}, {"measurement": "Root Vigor Average Expt. 2", "setting": "[1]; drench 5 ppm", "value": 2.7}, {"measurement": "Root Rot Average Expt. 2", "setting": "[1]; drench 5 ppm", "value": 3.4}, {"measurement": "Root Rot Average Expt. 1", "setting": "[1]; drench 5 ppm", "value": 3.9}, {"measurement": "Root Vigor Average Expt. 1", "setting": "[1]; drench 10 ppm", "value": 2.1}, {"measurement": "Root Vigor Average Expt. 2", "setting": "[1]; drench 10 ppm", "value": 3}, {"measurement": "Root Rot Average Expt. 2", "setting": "[1]; drench 10 ppm", "value": 3.1}, {"measurement": "Root Rot Average Expt. 1", "setting": "[1]; drench 10 ppm", "value": 3.5}, {"measurement": "Root Vigor Average Expt. 1", "setting": "[1]; drench 25 ppm", "value": 2.8}, {"measurement": "Root Vigor Average Expt. 2", "setting": "[1]; drench 25 ppm", "value": 3.1}, {"measurement": "Root Rot Average Expt. 2", "setting": "[1]; drench 25 ppm", "value": 2.6}, {"measurement": "Root Rot Average Expt. 1", "setting": "[1]; drench 25 ppm", "value": 2.9}, {"measurement": "Root Vigor Average Expt. 1", "setting": "[1]; drench 50 ppm", "value": 2.3}, {"measurement": "Root Vigor Average Expt. 2", "setting": "[1]; drench 50 ppm", "value": 2.9}, {"measurement": "Root Rot Average Expt. 2", "setting": "[1]; drench 50 ppm", "value": 2.6}, {"measurement": "Root Rot Average Expt. 1", "setting": "[1]; drench 50 ppm", "value": 3.1}]}]}
